Like-named read-outs stand apart in the source and are kept apart here. Ends that are not written are not given here. Peptide text beside a SMILES is read from it.
Columns and labels:
E. coli K-12 BW25113 = experiment: Laboratory evolution of resistance, MIC fold change of adapted lines; format: cell-based, Escherichia coli; conditions: for MIC fold change following 20 transfers: Escherichia coli K-12 BW25113; for MIC fold change after the evolution: MIC evolved / MIC control, 20 transfers, ~120 generations
Source text: Our first goal was to study resistance evolution against a set of AMPs and antibiotics. We have followed established protocols with minor modifications to evolve bacterial populations under controlled laboratory conditions[19],[20]. The applied protocol aims to maximize the level of drug resistance in the evolving populations achieved during a fixed time period. We have initiated a laboratory evolution experiment, starting with a single clone of Escherichia coli K-12 BW25113 (abbreviated as E. coli K-12 BW25113). Parallel evolving populations were exposed to increasing concentrations of one of 14 AMPs (Supplementary Table 1). Peptides were chosen based on the following criteria: diverse sources (synthetic/natural), different putative mechanisms of action, structural diversity, and clinical relevance. Another set of populations were exposed to one of 12 clinically relevant antibiotics (Supplementary Table 2), using the same protocol. Accordingly, we have propagated 10 independent populations in the presence of each AMP or antibiotic for ∼120 generations. We isolated a single, representative clone from each population, resulting in 140 AMP-adapted lines and 120 antibiotic-adapted lines. Throughout the paper, we compare the level of resistance in the evolved lines to the corresponding wild-type strain by measuring changes in the drugs’ minimum inhibitory concentrations (MIC).
(§1) The evolutionary protocol was designed to avoid population extinction and to ensure that populations with the highest level of resistance were propagated further. Starting with a subinhibitory drug concentration (Supplementary Data 8), resulting in ~50% growth inhibition, 10 parallel populations per drug were allowed to grow in Minimal Salts medium for 72 h and 300 r.p.m. E. coli K-12 BW25113 and E. coli mutD5 populations were incubated at 30 °C, while E. coli ATCC 25922, S. enterica LT2, K. pneumonia ATCC 10031, and A. baumannii ATCC 17978 were incubated at 37 °C. […] Prior to each transfer, cell growth was monitored by measuring the optical density at 600 nm (OD600 value, Biotek Synergy 2 microplate reader). Only populations with the highest drug concentration (and reaching OD600 > 0.2) were selected for further evolution. A chess-board layout was used on the plate to monitor potential cross-contamination events. […] E. coli mutD5 was adapted to TPII, also in 10 parallel evolving populations.
(§2) MICs were determined using a standard serial broth dilution technique. Briefly, 11-step serial dilutions were prepared in 96-well microtiter plates with three replicates per strain and antimicrobial compound. Each experiment was repeated at least twice. 5 × 10^5 cells/mL were inoculated into each well, and the plates were incubated at 30 °C in case of E. coli K-12 BW25113, and its antibiotic and AMP-adapted lines, or 37 °C in case of the other bacterial species. Plates were shaken at 300 r.p.m. during incubation for 24 and 18 h, respectively. Cell growth was monitored by measuring the optical density (OD600 value, Biotek Synergy 2 microplate reader was used for this purpose). […] Relative MIC was calculated as follows: MICrelative = MICevolved/MICcontrol.

[1] = system: E. coli ATCC 25922, S. enterica LT2, K. pneumoniae ATCC 10031, A. baumannii ATCC 17978; experiment: Laboratory evolution in pathogenic bacteria, statements for all four pathogens together; format: cell-based; conditions: all four pathogenic species
Source text: (§3) The tested pathogens initially sensitive to the AMPs and the antibiotics included Escherichia coli (ATCC® 25922™) (abbreviated as E. coli ATCC 25922), Salmonella enterica subsp. enterica serovar Typhimurium LT2 (abbreviated as S. enterica LT2), Klebsiella pneumoniae subsp. pneumoniae (Schroeter) Trevisan (ATCC® 10031™) (abbreviated as K. pneumoniae ATCC 10031) and Acinetobacter baumannii Bouvet and Grimont (ATCC® 17978™) (abbreviated as A. baumannii ATCC 17978).
as §1
MICs were determined using a standard serial broth dilution technique. Briefly, 11-step serial dilutions were prepared in 96-well microtiter plates with three replicates per strain and antimicrobial compound. Each experiment was repeated at least twice. […] Cell growth was monitored by measuring the optical density (OD600 value, Biotek Synergy 2 microplate reader was used for this purpose). […] Relative MIC was calculated as follows: MICrelative = MICevolved/MICcontrol.

S. enterica LT2 [2] = experiment: Laboratory evolution of resistance, MIC fold change of adapted lines; format: cell-based, Salmonella enterica subsp. enterica serovar Typhimurium; conditions: Salmonella enterica serovar Typhimurium LT2; parallel line 1 of 10
Source text: as §3
The evolutionary protocol was designed to avoid population extinction and to ensure that populations with the highest level of resistance were propagated further. Starting with a subinhibitory drug concentration (Supplementary Data 8), resulting in ~50% growth inhibition, 10 parallel populations per drug were allowed to grow in Minimal Salts medium for 72 h and 300 r.p.m. […] Prior to each transfer, cell growth was monitored by measuring the optical density at 600 nm (OD600 value, Biotek Synergy 2 microplate reader). […]
MICs were determined using a standard serial broth dilution technique. […] Cell growth was monitored by measuring the optical density (OD600 value, Biotek Synergy 2 microplate reader was used for this purpose). […] Relative MIC was calculated as follows: MICrelative = MICevolved/MICcontrol.

[3] = system: E. coli K-12 BW25113 carrying single mutations; experiment: MIC change in single-mutation strains (basS L194R, mlaD a342del, waaY M1†); format: cell-based, Escherichia coli
S. enterica LT2 [4] = format: cell-based, Salmonella enterica subsp. enterica serovar Typhimurium; conditions: broth dilution, 37 °C, 18 h
Description: (§4) Unless otherwise indicated, we used E. coli K-12 BW25113 in all high-throughput experiments. To investigate the impact of mutation rate on evolution of AMP resistance, we initiated laboratory evolution with a mutator strain E. coli mutD5 that carries mutations in the dnaQ gene (L73W and A164V).
as §2

[5] = system: E. coli K-12 BW25113 bearing the metagenomic plasmid library; experiment: Functional metagenomic screen of a soil library, gradient plate selection; format: cell-based, Escherichia coli
[6] = system: Methicillin-resistant Staphylococcus aureus subsp. aureus ATCC 43300; format: cell-based; conditions: broth dilution, 37 °C, 18 h
Description: as §4, §2

[7] = system: Escherichia coli ATCC 35218; format: cell-based; conditions: broth dilution, 37 °C, 18 h
Description: as §4, §2

[8] = system: Staphylococcus aureus subsp. aureus ATCC 29213; format: cell-based; conditions: broth dilution, 37 °C, 18 h
Description: as §4, §2

[9] = system: Klebsiella pneumoniae NCTC 13440; format: cell-based; conditions: broth dilution, 37 °C, 18 h
Description: as §4, §2

[10] = system: Escherichia coli NCTC 13351; format: cell-based; conditions: broth dilution, 37 °C, 18 h
Description: as §4, §2

[11] = system: Escherichia coli ATCC BAA 2469; format: cell-based; conditions: broth dilution, 37 °C, 18 h
Description: as §4, §2

[12] = system: Shigella sonnei HNCMB 25021; format: cell-based; conditions: broth dilution, 37 °C, 18 h
Description: as §4, §2

K. pneumoniae ATCC 10031 = format: cell-based, Klebsiella pneumoniae; conditions: Klebsiella pneumoniae ATCC 10031; broth dilution, 37 °C, 18 h
Description: as §4, §2

A. baumannii ATCC 17978 = format: cell-based, Acinetobacter baumannii; conditions: Acinetobacter baumannii ATCC 17978; broth dilution, 37 °C, 18 h
Description: as §4, §2

[13] = parallel line 1 of 10 adapted to the agent

For `NC[C@H]1O[C@H](O[C@H]2[C@H](O)[C@@H](O[C@H]3O[C@H](CO)[C@@H](O)[C@H](N)[C@H]3O)[C@H](N)C[C@@H]2N)[C@H](O)[C@@H](O)[C@@H]1O` [KAN, Kanamycin], the “MIC fold change following 20 transfers” value (E. coli K-12 BW25113; [13]) was 256 fold, the “MIC fold change following 20 transfers” value (E. coli K-12 BW25113; parallel line 2 of 10 adapted to the agent) was 256 fold and the “MIC fold change following 20 transfers” value (E. coli K-12 BW25113; parallel line 3 of 10 adapted to the agent) was 177 fold. The “MIC fold change following 20 transfers” value (E. coli K-12 BW25113; parallel line 4 of 10 adapted to the agent) was 177 fold, the “MIC fold change following 20 transfers” value (E. coli K-12 BW25113; parallel line 5 of 10 adapted to the agent) was 93 fold and the “MIC fold change following 20 transfers” value (E. coli K-12 BW25113; parallel line 6 of 10 adapted to the agent) was 256 fold. The “MIC fold change following 20 transfers” value (E. coli K-12 BW25113; parallel line 7 of 10 adapted to the agent) was 256 fold, the “MIC fold change following 20 transfers” value (E. coli K-12 BW25113; parallel line 8 of 10 adapted to the agent) was 49 fold and the “MIC fold change following 20 transfers” value (E. coli K-12 BW25113; parallel line 9 of 10 adapted to the agent) was 177 fold. For the same compound, the “MIC fold change following 20 transfers” value (E. coli K-12 BW25113; parallel line 10 of 10 adapted to the agent) was 93 fold, the “MIC fold change after the evolution” value (E. coli K-12 BW25113; parallel-evolved line 1) was 256 and the “MIC fold change after the evolution” value (E. coli K-12 BW25113; parallel-evolved line 2) was 256. The “MIC fold change after the evolution” value (E. coli K-12 BW25113; parallel-evolved line 3) was 177, the “MIC fold change after the evolution” value (E. coli K-12 BW25113; parallel-evolved line 4) was 177 and the “MIC fold change after the evolution” value (E. coli K-12 BW25113; parallel-evolved line 5) was 93. For the same compound, the “MIC fold change after the evolution” value (E. coli K-12 BW25113; parallel-evolved line 6) was 256, the “MIC fold change after the evolution” value (E. coli K-12 BW25113; parallel-evolved line 7) was 256 and the “MIC fold change after the evolution” value (E. coli K-12 BW25113; parallel-evolved line 8) was 49. For the same compound, the “MIC fold change after the evolution” value (E. coli K-12 BW25113; parallel-evolved line 9) was 177 and the “MIC fold change after the evolution” value (E. coli K-12 BW25113; parallel-evolved line 10) was 93.
For `CC[C@H](C)[C@@H]1NC(=O)CNC(=O)[C@H](CCCNC(=N)N)NC(=O)[C@H](Cc2ccc(O)cc2)NC(=O)[C@@H]2CSSC[C@H](NC1=O)C(=O)N[C@@H](Cc1ccc(O)cc1)C(=O)N[C@@H](CCCNC(=N)N)C(=O)N[C@@H](CCCCN)C(=O)N[C@H](C(=O)N[C@@H](CCCNC(=N)N)C(N)=O)CSSC[C@H](NC(=O)[C@H](Cc1c[nH]c3ccccc13)NC(=O)[C@@H](N)CCCNC(=N)N)C(=O)N[C@@H](Cc1ccccc1)C(=O)N[C@@H](CCCNC(=N)N)C(=O)N[C@@H](C(C)C)C(=O)N2` [TPII, tachyplesin II] (HELM PEPTIDE1{R.W.C.F.R.V.C.Y.R.G.I.C.Y.R.K.C.R.[am]}$PEPTIDE1,PEPTIDE1,3:R3-16:R3|PEPTIDE1,PEPTIDE1,7:R3-12:R3$$$V2.0; N-terminus and C-terminus assumed; bridges inferred), the “resistance after laboratory evolution in pathogens (in words)” value [1] was “very low levels”, the “MIC fold change following 20 transfers” value (S. enterica LT2 [2]) was 1.0 fold and the “resistance conferred by single mutations basS L194R, mlaD a342del, waaY M1† (in words)” value ([3]; mutations inserted individually into E. coli K-12 BW25113) was “no resistance”. For the same compound, the “Relative MIC compared to the wild-type” value ([3]; strain with reinserted mutation basS L194R (CTG→CGG)) was 1.0, the “Relative MIC compared to the wild-type” value ([3]; strain with reinserted mutation mlaD a342del) was 1.0 and the “Relative MIC compared to the wild-type” value ([3]; strain with reinserted mutation waaY M1† (ATG→CTG)) was 1.0. For the same compound, the “MIC fold change following 20 transfers” value (E. coli K-12 BW25113; [13]) was 1.0 fold, the “average MIC fold change after the evolution” value (E. coli K-12 BW25113; average of MIC fold change of the 10 independently adapted populations) was 1.000 and the “MIC fold change after the evolution” value (E. coli K-12 BW25113; parallel-evolved line 1) was 1. For the same compound, the “MIC fold change after the evolution” value (E. coli K-12 BW25113; parallel-evolved line 2) was 1, the “MIC fold change after the evolution” value (E. coli K-12 BW25113; parallel-evolved line 3) was 1 and the “MIC fold change after the evolution” value (E. coli K-12 BW25113; parallel-evolved line 4) was 1. For the same compound, the “MIC fold change after the evolution” value (E. coli K-12 BW25113; parallel-evolved line 5) was 1, the “MIC fold change after the evolution” value (E. coli K-12 BW25113; parallel-evolved line 6) was 1 and the “MIC fold change after the evolution” value (E. coli K-12 BW25113; parallel-evolved line 7) was 1. The “MIC fold change after the evolution” value (E. coli K-12 BW25113; parallel-evolved line 8) was 1, the “MIC fold change after the evolution” value (E. coli K-12 BW25113; parallel-evolved line 9) was 1 and the “MIC fold change after the evolution” value (E. coli K-12 BW25113; parallel-evolved line 10) was 1. The “resistance in evolved lines after laboratory evolution (in words)” value (E. coli K-12 BW25113; ~120 generations under increasing drug concentration) was “failed to detect any resistance”, the MIC (S. enterica LT2 [4]; starting strain, MS medium) was 4 µg/mL and the “resistant clones / resistance-conferring DNA segments from the soil metagenomic library (in words)” value [5] was “failed to find DNA segments that would provide resistance”. For the same compound, the “Number of resistant contig” value ([5]; soil metagenomic library, 1.5–5 kb fragments, gradient plate, 30 °C, 24 h) was 0.
In the case of “SWLSKTAKKLENSAKKRISEGIAIAIQGGPR [CP1, Cecropin P1]”, the MIC [6] is reported as over 9.6 µM, the MIC [7] is reported as 1.2 µM and the MIC [8] is reported as over 9.6 µM. The MIC [9] was 1.2 µM, the MIC [10] was 0.6 to 1.2 µM and the MIC [11] was 1.2 µM. For the same compound, the MIC [12] was 0.6 to 1.2 µM, the MIC (K. pneumoniae ATCC 10031) was 1.2 to 2.4 µM and the MIC (S. enterica LT2 [4]; Salmonella enterica subsp. enterica serovar Typhimurium LT2) was 1.2 to 2.4 µM. It also gave an MIC (A. baumannii ATCC 17978) of 0.6 to 1.2 µM.
